Data on 1 compound can be found in PMC3515450, “Mechanistic and Structural Understanding of Uncompetitive Inhibitors of Caspase-6” (PLoS ONE, 2012).

In one assay the target is T1, caspase-7 (Homo sapiens, UniProt P55210).
T1 construct: as the catalytic domain consisting of large p20 and small p10 subunits without prodomain; made in house
T1 sequence (P55210 24-198 limits assumed): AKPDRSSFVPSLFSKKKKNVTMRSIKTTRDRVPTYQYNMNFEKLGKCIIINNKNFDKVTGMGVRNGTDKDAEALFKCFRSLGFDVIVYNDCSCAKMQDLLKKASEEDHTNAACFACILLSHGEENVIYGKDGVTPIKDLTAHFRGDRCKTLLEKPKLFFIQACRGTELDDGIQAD
T1 sequence (P55210 207-303 limits assumed): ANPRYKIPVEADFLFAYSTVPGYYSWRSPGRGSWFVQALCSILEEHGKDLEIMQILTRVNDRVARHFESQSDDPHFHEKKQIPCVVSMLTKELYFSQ
As to the kind of experiment: Caspase-7 enzymatic assay with divalent R110 substrate. The assay is classed as biochemical. To be noted: caspase-7, (DEVD)2R110 substrate. As to the method:
The in vitro enzymatic caspase assays utilize synthetic tetrapeptide substrates labeled with the fluorophores Rhodamine110 (R110) or 7-amino-4-methylcoumarin (AMC) at the P1 aspartic acid (Asp) residue. All assays were performed in 384-well plates in 12 µL reaction volume consisting of enzyme, substrate and indicated concentration of inhibitor or DMSO in assay buffer (50 mM HEPES [pH 7.0], 25 mM MgSO4, 0.5 mM EGTA, 5 mM Glutathione (GSH), 0.01% Triton X-100 containing 0.1% Bovine Gamma Globulin (BGG)). All inhibitors were serially diluted in 100% DMSO prior to dilution in assay buffer and transfer to assay plate. DMSO was diluted into assay buffer similarly for blank wells (no enzyme or compound) and final DMSO concentration was 1%. […] Unless otherwise indicated, substrate concentration was within 3-fold of the determined Kmapparent (5 µM (Ac-VEID)2R110 [Kmapp = 8 µM]; 5 µM (Ac-DEVD)2R110 [Kmapp = 8 µM]; 25 µM (Ac-IETD)2R110 [Kmapp = 70 µM]; 25 µM (Ac-WEHD)2R110 [Kmapp = 70 µM]; 10µM Ac-VEID-AMC [Kmapp = 16µM]; 5 µM Ac-VEID-R110 [Kmapp = 8 µM]). […] For all caspase enzymatic assays, the reaction plate was incubated at room temperature for 40 minutes and then read on Envision (Perkin Elmer) fluorescent plate reader at excitation/emission wavelengths of 485/535 nm (R110) or 350/450 nm (AMC). […]

In another assay the target is T2, caspase-6 (Homo sapiens, UniProt P55212).
T2 construct: Residues 24-179 and 194-293 from caspase-6 cDNA (Origene) were cloned into pET-24b and pET-23b vectors; 6x histidine tag (C); made in house; host or cells: E. coli BL21 (DE3) pLysS
T2 sequence (P55212 24-179): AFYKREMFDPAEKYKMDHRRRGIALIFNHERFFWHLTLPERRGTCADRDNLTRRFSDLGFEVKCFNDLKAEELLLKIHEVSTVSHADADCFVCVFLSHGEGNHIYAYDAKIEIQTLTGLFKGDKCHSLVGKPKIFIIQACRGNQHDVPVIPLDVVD
T2 sequence (P55212 194-293): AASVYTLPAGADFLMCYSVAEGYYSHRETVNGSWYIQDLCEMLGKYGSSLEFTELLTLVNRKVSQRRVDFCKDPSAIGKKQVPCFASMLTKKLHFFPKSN
Description: Cleavage of Lamin A by purified human caspase-6 (western blot). Conditions: 100 µM concentration. The assay is classed as biochemical. As to the method:
The assay to monitor cleavage of Lamin A by purified human caspase-6 is described in Experimental Procedures S1.
Cleavage of Lamin A by purified human Caspase-6: Recombinant caspase-6 was prepared at 6.6 nM final concentration in assay buffer (40 mM HEPES [pH 7.2], 100 mM NaCl, 1 mM EDTA, 2 mM DTT, 0.1% CHAPS, 3% DMSO), and pre-incubated at 37 °C with increasing concentrations (as indicated) of the compound to be assayed. After 30 minutes, GST-tagged Lamin A substrate (Abnova, Cat# H00004000-P01) was added to the reaction mix at a final concentration of 0.33 µM and the incubation was continued for 2 h at 37 °C. Samples were boiled for 5 min to terminate the proteolytic cleavage reaction before they were resolved by SDS-PAGE (10-20% Tris-glycine gel) and transferred to nitrocellulose. The blot was probed with mouse anti-Lamin A antibody (Abnova # H00004000-B01P) and detected with IRDye800 anti-mouse antibody (LI-COR #926-32210). […] Imaging was done on the LI-COR Odyssey® Infrared Imaging System using the 800 nm channel.
In general terms: Immunoblotting shows a protein as a band on a membrane.

By IC50 is commonly meant the concentration that inhibits the measured activity by half. As for `COc1ccc(-c2cc(C(=O)N[C@@H](CO)Cc3cccc(C#N)c3)co2)cc1OC` [Compound 3], at caspase-7, the IC50 was over 100 µM. On caspase-6, the “inhibition of caspase-6 cleavage of recombinant Lamin A” value is “did not inhibit”.
